ChEMBL document CHEMBL1201862, “PubChem BioAssay data set” (2004)
Activity calls are given as the source filed them.

Key:
HEK293 = assay: inhibitors of LMP1-driven NF-kB reporter, dose response, cell-based, HEK293, luciferase, cherry-pick (AID 588343); format: functional; settings: Homo sapiens
Cytochrome P450 3A4 = Cytochrome P450 3A4 (Homo sapiens, UniProt P08684);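 also: CYP3A4 tested as one member of a cytochrome P450 panel screen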
[1] = target: Heat shock protein HSP 90-alpha (Homo sapiens, UniProt P07900); format: functional, organism-based
[2] = target: T1, Short transient receptor potential channel 4 (Mus musculus, UniProt Q9QUQ5); assay: mouse TRPC4 channel activators, dose response, cell-based, HEK293 TRPC4/mu-opioid, Fluo-4 calcium (AID 434937); format: functional
T1 sequence (Q9QUQ5 whole entry): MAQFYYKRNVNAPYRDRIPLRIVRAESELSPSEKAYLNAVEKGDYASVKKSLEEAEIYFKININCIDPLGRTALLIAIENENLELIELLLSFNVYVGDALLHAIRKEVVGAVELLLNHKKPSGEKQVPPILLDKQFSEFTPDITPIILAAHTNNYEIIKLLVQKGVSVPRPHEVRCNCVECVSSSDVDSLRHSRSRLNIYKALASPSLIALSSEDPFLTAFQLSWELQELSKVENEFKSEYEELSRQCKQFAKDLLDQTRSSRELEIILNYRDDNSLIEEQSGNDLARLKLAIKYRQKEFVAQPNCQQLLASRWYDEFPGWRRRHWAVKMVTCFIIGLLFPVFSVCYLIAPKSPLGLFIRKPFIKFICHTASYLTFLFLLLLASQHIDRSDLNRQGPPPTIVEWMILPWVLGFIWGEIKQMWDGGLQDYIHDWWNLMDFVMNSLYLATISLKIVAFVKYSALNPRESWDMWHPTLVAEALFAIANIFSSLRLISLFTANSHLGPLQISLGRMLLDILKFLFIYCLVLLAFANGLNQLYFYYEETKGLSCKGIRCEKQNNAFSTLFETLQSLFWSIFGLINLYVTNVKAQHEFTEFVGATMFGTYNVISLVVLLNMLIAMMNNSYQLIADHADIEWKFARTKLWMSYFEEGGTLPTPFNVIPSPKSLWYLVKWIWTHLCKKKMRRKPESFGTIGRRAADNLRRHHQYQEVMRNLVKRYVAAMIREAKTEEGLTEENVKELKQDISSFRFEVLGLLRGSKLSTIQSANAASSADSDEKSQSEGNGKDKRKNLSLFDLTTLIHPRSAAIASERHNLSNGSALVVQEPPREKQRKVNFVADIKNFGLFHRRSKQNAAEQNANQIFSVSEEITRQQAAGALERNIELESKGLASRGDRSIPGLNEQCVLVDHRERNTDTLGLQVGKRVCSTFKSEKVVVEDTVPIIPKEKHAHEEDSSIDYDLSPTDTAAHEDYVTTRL

[3] = target: Dual specificity tyrosine-phosphorylation-regulated kinase 1A (Rattus norvegicus, UniProt Q63470); format: biochemical, Homo sapiens
[4] = A cytotoxicity screen of small molecule inhibitors of the PhoP region in Salmonella typhi identified in the primary screen. [Related pubchem assays: 1850, 1864, 1985 ]; format: functional
[5] = target: T1, Short transient receptor potential channel 4; assay: mouse TRPC4 channel inhibitors, dose response, cell-based, HEK293 TRPC4/mu-opioid, Fluo-4 calcium (AID 434942); format: functional;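 also: potency of inhibitors blocking the TRPC4 calcium response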
[6] = target: T2, Carboxy-terminal domain RNA polymerase II polypeptide A small phosphatase 1 (Homo sapiens, UniProt Q9GZU7); assay: inhibitors of CTDSP1, concentration-response testing, biochemical assay, absorbance-based, actives from ultra-high-throughput screening (AID 540297); format: functional
T2 sequence (Q9GZU7 whole entry): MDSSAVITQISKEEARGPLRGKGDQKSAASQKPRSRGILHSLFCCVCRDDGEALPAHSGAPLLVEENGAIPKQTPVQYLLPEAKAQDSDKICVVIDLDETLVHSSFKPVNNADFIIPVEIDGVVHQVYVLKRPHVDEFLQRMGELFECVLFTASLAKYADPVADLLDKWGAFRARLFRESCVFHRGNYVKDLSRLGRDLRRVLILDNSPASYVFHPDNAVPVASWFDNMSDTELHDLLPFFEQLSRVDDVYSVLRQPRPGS

Nonstructural protein 1 = Nonstructural protein 1 (Influenza A virus, UniProt Q194T2); format: functional, Influenza A virus (A/California/07/2009(H1N1))
[7] = Luminescence Cell-Based Dose Response HTS to Identify Inhibitors of 5'UTR Stem-Loop Driven Prion Protein mRNA Translation in H4 Neuroglioblastoma Cells. [Related pubchem assays: 1827 (Project Summary), 1813 (Primary HTS)]; format: functional
[8] = inhibitors of SNCA 5'UTR-driven reporter translation, confirmation, H4 neuroglioma cells, luminescence (AID 1988); format: functional, cell-based
[9] = inhibitors of firefly luciferase expression or activity, dose response, H4 neuroglioma cells, luminescence (AID 1990); format: functional, cell-based
cells = format: functional
[10] = Vero E6 cell cytotoxicity, dose response, cytotoxicity control for non-replicating M. tuberculosis project, secondary assay (AID 492998); format: functional, VeroE6; settings: Vero C1008
[11] = target: T3, High affinity choline transporter 1 (Homo sapiens, UniProt Q9GZV3); assay: CHT inhibitors, dose response, cell-based, 5-point CRC, membrane potential dye (AID 504840); format: functional
T3 sequence (Q9GZV3 whole entry): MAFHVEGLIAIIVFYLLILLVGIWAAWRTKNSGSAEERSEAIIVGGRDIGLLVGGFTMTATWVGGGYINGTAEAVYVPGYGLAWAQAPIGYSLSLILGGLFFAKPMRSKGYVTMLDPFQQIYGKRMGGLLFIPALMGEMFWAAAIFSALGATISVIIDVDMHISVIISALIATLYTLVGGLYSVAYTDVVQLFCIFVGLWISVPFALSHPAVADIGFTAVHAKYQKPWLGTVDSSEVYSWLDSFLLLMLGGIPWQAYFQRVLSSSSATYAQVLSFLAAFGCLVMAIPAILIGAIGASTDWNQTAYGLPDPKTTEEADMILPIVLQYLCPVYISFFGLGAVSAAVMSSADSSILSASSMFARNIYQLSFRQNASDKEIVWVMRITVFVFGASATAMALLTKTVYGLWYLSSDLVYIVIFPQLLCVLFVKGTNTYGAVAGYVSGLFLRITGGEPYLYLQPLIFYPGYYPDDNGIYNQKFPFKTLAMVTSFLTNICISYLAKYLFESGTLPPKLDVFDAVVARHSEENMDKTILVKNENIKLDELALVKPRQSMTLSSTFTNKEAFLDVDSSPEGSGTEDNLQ

[12] = target: T4, Microphthalmia-associated transcription factor (Homo sapiens, UniProt O75030); assay: TRPM1 promoter luciferase signal decrease, dose response, MITF inhibitor project, cell-based, SK-MEL-5, cherry-picked, set 3 (AID 493073); format: functional
T4 sequence (O75030 whole entry): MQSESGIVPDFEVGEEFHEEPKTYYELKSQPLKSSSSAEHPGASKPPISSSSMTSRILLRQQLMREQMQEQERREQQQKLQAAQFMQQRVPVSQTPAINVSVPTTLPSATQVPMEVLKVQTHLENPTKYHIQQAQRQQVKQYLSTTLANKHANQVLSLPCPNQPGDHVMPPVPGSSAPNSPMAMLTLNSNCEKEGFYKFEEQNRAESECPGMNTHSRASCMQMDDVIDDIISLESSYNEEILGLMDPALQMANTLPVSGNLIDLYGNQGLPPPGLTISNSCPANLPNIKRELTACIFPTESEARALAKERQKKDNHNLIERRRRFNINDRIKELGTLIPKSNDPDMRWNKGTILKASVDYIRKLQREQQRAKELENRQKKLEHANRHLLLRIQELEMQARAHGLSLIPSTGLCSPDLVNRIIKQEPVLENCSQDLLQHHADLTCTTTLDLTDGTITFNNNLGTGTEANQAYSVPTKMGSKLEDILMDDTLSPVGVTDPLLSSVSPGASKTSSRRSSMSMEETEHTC

Cytochrome P450 1A2 = target: T5, Cytochrome P450 1A2 (Homo sapiens, UniProt P05177);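 also: PubChem cytochrome P450 panel assay, CYP1A2 panel member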
T5 sequence (P05177 whole entry): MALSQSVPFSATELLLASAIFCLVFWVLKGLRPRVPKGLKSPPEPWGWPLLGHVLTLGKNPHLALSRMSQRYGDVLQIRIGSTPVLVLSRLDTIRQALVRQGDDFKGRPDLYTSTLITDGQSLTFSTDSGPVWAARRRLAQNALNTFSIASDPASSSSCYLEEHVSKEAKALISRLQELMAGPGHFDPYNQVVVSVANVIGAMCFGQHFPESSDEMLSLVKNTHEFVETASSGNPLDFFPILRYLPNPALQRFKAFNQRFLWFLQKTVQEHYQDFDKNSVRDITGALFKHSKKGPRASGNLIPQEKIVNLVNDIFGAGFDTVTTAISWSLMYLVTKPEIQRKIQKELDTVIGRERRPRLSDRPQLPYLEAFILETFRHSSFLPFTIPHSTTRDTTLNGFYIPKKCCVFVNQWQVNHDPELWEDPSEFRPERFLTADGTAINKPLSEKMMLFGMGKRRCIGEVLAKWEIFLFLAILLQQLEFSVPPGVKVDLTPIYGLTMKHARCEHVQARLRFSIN

[13] = C. albicans growth with fluconazole, confirmation, fluorescence, retest (AID 2467); format: functional, cell-based
[14] = NIH-3T3 fibroblast cytotoxicity, dose response, cytotoxicity control, cell-based, fluorescence, Alamar Blue, secondary assay (AID 2327); format: functional;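 also: NIH-3T3 mouse fibroblasts cultured with fluconazole at 8 µg/mL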
[15] = target: T6, Heat shock factor protein 1 (Mus musculus, UniProt P38532); assay: inhibition of MG132-induced HSE-luciferase signal, confirmation, cell-based, NIH3T3, luminescence, dose retest (AID 2382); format: functional;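 also: NIH3T3 fibroblasts with HSF1-driven luciferase reporter stressed by proteasome inhibitor MG132; luminescence from HSF1-driven luciferase expression after 8 hours of MG132 stress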
T6 sequence (P38532 whole entry): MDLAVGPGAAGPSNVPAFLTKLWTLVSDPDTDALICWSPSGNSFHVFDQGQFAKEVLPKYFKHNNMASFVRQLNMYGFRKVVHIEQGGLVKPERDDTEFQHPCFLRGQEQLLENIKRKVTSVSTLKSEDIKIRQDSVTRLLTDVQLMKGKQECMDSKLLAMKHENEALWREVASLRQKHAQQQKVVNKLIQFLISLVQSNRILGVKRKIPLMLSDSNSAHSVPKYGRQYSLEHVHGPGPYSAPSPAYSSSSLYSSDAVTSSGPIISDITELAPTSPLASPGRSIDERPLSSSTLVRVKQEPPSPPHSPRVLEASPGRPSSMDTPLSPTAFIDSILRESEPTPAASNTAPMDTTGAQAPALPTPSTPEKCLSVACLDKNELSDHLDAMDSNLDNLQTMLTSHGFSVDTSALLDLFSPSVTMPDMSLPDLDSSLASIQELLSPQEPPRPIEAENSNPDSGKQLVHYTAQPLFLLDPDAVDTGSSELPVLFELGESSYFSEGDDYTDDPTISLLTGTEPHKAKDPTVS

Sequence of Cytochrome P450 3A4 (P08684 whole entry): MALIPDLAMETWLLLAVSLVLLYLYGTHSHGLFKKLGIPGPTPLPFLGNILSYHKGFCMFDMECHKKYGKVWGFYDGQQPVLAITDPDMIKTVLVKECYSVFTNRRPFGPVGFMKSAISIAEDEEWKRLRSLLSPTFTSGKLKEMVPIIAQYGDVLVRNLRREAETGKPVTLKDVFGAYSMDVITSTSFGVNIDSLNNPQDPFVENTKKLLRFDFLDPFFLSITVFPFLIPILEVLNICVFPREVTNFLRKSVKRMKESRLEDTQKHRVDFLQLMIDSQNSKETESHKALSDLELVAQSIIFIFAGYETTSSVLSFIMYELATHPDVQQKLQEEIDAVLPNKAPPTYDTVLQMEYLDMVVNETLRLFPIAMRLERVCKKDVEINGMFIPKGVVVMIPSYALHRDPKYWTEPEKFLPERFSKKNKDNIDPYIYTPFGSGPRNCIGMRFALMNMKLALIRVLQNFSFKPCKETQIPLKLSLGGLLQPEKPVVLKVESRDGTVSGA
Sequence of Nonstructural protein 1 (Q194T2 whole entry): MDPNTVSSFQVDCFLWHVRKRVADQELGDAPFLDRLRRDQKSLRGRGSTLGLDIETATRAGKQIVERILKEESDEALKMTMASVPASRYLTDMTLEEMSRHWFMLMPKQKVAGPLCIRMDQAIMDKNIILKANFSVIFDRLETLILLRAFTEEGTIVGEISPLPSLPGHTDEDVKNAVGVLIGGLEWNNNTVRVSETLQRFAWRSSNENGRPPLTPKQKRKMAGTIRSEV

COc1ccc(S(=O)(=O)NCCc2csc(-c3cccnc3)n2)cc1
AC50 (HEK293): 144 µM (active)

CC(C)OC(=O)C(C)(C)Oc1ccc(C(=O)c2ccc(Cl)cc2)cc1 [FENOFIBRATE]
AC50 (Cytochrome P450 3A4): inconclusive

COc1ccc(CCN2C(=O)C=CC2=O)cc1OC
AC50 [1]: 3.1 µM (active)

COc1cccc(CN2CCNC(=O)C2CC(=O)N(C)CCc2ccccn2)c1OC (stereo not given)
EC50 [2]: 6.68 µM (active)

C(=N\Nc1[nH]cnc2ncnc1-2)/c1cccs1
AC50 [3]: 5.83 µM (active)

CCc1nccc2c1[nH]c1ccccc12
EC50 [4]: > 50 µM (active) | AC50 [3]: 5.67 µM (active) | EC50 [5]: 2.99 µM (active)

CCc1ccccc1NC(=O)COc1ccc2oc(-c3ccc(OC)cc3)cc(=O)c2c1
IC50 [6]: 8.65 µM (active)

O=C(CSc1nccc(O)n1)N1N=C2/C(=C/c3ccco3)CCCC2C1c1ccco1 (stereo not given)
IC50 [6]: 13 µM (active)

CCOC(=O)C1=C(C)N=C2c3ccccc3C(=O)C2C1c1ccc(C)cc1 (stereo not given)
AC50 (Cytochrome P450 3A4): inconclusive | IC50 (Nonstructural protein 1): > 100 µM (active)

O=C(N/N=C1\CCCc2c1[nH]c1ccc(Cl)cc21)c1ccncc1
EC50 [7]: 25.8 µM (active) | EC50 [8]: 10.3 µM (active) | EC50 [9]: 11.1 µM (active) | IC50 (cells): 0.6 µM (active) | CC50 [10]: 9.43 µM (active)

CC(/C=N/NC(=O)c1cc(-c2ccncc2)nc2ccccc12)=C\c1ccco1
IC50 [11]: 9.98 µM (active) | AC50 [12]: 2.4 µM (active)

O=C(c1ccccc1)c1nc[nH]c1C(=O)Nc1ccccc1
IC50 (cells): 12.5 µM (active) | CC50 [10]: > 20 µM (active)

O=C(O)/C=C/c1cccc(NC(=O)Nc2ccc([N+](=O)[O-])cc2)c1
AC50 [3]: 5.42 µM (active)

O=C(c1cc(C(F)(F)F)cc(C(F)(F)F)c1)N1CCC2(CC1)CCN(c1ccncc1)CC2
AC50 (Cytochrome P450 3A4): inconclusive | AC50 (Cytochrome P450 1A2): 25.1 µM (inconclusive)

N#Cc1ccccc1S(=O)(=O)N1CCN(C(=O)C2COc3ccccc3O2)CC1 (stereo not given)
IC50 [6]: 3.54 µM (active)

CC(=O)OCC(=O)[C@@]1(OC(C)=O)[C@H](C)C[C@H]2[C@@H]3C[C@H](F)C4=CC(=O)C=C[C@@]4(C)[C@]3(F)[C@H](O)C[C@@]21C
AC50 (Cytochrome P450 3A4): inconclusive | AC50 (Cytochrome P450 1A2): 12.6 µM (inconclusive)

Cc1ccc(C(=O)OCC(=O)c2ccc(CC(=O)N3CCOCC3)s2)c(C)c1
IC50 [6]: 4.73 µM (active)

CSc1nc2cc(S(=O)(=O)N3CCCCC3)ccc2s1
AC50 (Cytochrome P450 3A4): inconclusive

Nc1ncnc(Sc2ncccn2)c1[N+](=O)[O-]
EC50 [13]: 1 µM (active) | AC50 [12]: 11.7 µM (active) | EC50 [14]: 7.47 µM (inconclusive)

CC(C)(C)OC(=O)N1Cc2ccccc2C[C@H]1C(=O)NCC(=O)Nc1ccc2c(c1)OCCO2
EC50 [15]: 0.755 µM (active) | AC50 (HEK293): 1.4 µM (active)

COc1ccc(CCN(C)C(=O)C2CCCN(C3CCN(Cc4ccccc4)CC3)C2)cc1OC (stereo not given)
EC50 [2]: 1.19 µM (active)
